Data from patent publication US20210122730A1, “GLUCOCORTICOID RECEPTOR MODULATORS” (ORIC Pharmaceuticals, Inc., priority 2017, published 2021).

What follows are molecules tested against T1, GR (Homo sapiens, UniProt P04150) (assay: In Vitro GR Luciferase Reporter Assay (antagonist mode, CHO-K1-GR-MMTV-Luc reporter cells)). Conditions: antagonist mode, 10 nM Dexamethasone.
T1 construct: expressed in transfected cells; host or cells: CHO-K1
T1 sequence (P04150 1-777): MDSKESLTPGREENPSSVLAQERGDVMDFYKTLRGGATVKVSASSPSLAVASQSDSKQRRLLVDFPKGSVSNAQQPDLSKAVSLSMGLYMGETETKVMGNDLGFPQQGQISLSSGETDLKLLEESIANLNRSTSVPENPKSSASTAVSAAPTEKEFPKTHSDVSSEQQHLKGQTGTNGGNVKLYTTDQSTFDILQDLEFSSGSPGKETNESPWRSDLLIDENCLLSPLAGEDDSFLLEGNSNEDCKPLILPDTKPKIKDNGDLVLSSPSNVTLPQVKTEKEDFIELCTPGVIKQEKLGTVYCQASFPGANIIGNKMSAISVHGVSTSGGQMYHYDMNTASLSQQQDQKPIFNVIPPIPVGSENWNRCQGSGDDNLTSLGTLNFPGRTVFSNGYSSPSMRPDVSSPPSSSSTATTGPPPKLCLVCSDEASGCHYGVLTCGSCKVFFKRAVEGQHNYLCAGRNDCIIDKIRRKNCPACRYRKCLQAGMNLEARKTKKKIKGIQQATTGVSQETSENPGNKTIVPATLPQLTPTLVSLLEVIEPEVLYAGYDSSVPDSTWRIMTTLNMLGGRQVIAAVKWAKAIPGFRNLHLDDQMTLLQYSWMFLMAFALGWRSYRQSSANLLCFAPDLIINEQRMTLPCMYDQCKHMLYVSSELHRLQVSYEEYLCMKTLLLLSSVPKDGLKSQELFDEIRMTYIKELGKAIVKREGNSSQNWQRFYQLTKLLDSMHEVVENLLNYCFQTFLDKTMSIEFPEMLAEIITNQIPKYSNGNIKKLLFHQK
Assay type: cell-based
How it was run: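 Antagonist mode: compounds (8 serial 1:5 dilutions) added to GR-MMTV-luciferase CHO-K1 reporter cells co-exposed to 10 nM dexamethasone final, in phenol red-free DMEM plus 10% CSS. After roughly 18-24 h at 37° C, OneGlo luminescence read and IC50 calculated.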

Row | SMILES | IC50
1 | O=C(c1ncc(C(F)(F)F)s1)[C@]12Cc3cnn(-c4ccc(F)cc4)c3C=C1CC[C@H](N(CCF)S(=O)(=O)c1ccc(F)cc1)C2 [Example 386, 4-fluoro-N-(2-fluoroethyl)-N-((4aS,6S)-1-(4-fluorophenyl)-4a-(5-(trifluoromethyl)thiazole-2-carbonyl)-4,4a,5,6,7,8-hexahydro-1H-benzo[f]indazol-6-yl)benzenesulfonamide] | ≤ 100 nM
2 | Cn1cnc(S(=O)(=O)N(CCC#N)[C@H]2CCC3=Cc4c(cnn4-c4ccc(F)cc4)C[C@]3(C(=O)c3ncc(C(F)(F)F)s3)C2)n1 [Example 388, N-(2-cyanoethyl)-N-((4aS,6S)-1-(4-fluorophenyl)-4a-(5-(trifluoromethyl)thiazole-2-carbonyl)-4,4a,5,6,7,8-hexahydro-1H-benzo[f]indazol-6-yl)-1-methyl-1H-1,2,4-triazole-3-sulfonamide] | ≤ 100 nM
3 | O=C(c1cc(F)ccn1)[C@]12Cc3cnn(-c4ccc(F)cc4)c3C=C1CC[C@H](N(CCF)S(=O)(=O)c1ccc(F)cc1)C2 [Example 389, 4-fluoro-N-(2-fluoroethyl)-N-((4aS,6S)-1-(4-fluorophenyl)-4a-(4-fluoropicolinoyl)-4,4a,5,6,7,8-hexahydro-1H-benzo[f]indazol-6-yl)benzenesulfonamide] | ≤ 100 nM
4 | O=C(c1cc(Cl)ccn1)[C@]12Cc3cnn(-c4ccc(F)cc4)c3C=C1CC[C@H](N(CCF)S(=O)(=O)c1ccc(F)cc1)C2 [Example 390, N-((4aS,6S)-4a-(4-chloropicolinoyl)-1-(4-fluorophenyl)-4,4a,5,6,7,8-hexahydro-1H-benzo[f]indazol-6-yl)-4-fluoro-N-(2-fluoroethyl)benzenesulfonamide] | ≤ 100 nM
5 | COCCOCCN([C@H]1CCC2=Cc3c(cnn3-c3ccc(F)cc3)C[C@]2(C(=O)c2ncc(C(F)(F)F)s2)C1)S(=O)(=O)c1ccc(F)cc1 [Example 391, 4-fluoro-N-((4aS,6S)-1-(4-fluorophenyl)-4a-(5-(trifluoromethyl)thiazole-2-carbonyl)-4,4a,5,6,7,8-hexahydro-1H-benzo[f]indazol-6-yl)-N-(2-(2-methoxyethoxy)ethyl)benzene-sulfonamide] | ≤ 100 nM
6 | Cn1cnc(S(=O)(=O)N(CCF)[C@H]2CCC3=Cc4c(cnn4-c4ccc(F)cc4)C[C@]3(C(=O)c3cc(Cl)ccn3)C2)n1 [Example 393, N-((4aS,6S)-4a-(4-chloropicolinoyl)-1-(4-fluorophenyl)-4,4a,5,6,7,8-hexahydro-1H-benzo[f]indazol-6-yl)-N-(2-fluoroethyl)-1-methyl-1H-1,2,4-triazole-3-sulfonamide] | ≤ 100 nM
7 | Cn1cc(S(=O)(=O)N(CCF)[C@H]2CCC3=Cc4c(cnn4-c4ccc(F)cc4)C[C@]3(C(=O)c3ncc(C(F)(F)F)s3)C2)nn1 [Example 394, N-(2-fluoroethyl)-N-((4aS,6S)-1-(4-fluorophenyl)-4a-(5-(trifluoromethyl)thiazole-2-carbonyl)-4,4a,5,6,7,8-hexahydro-1H-benzo[f]indazol-6-yl)-1-methyl-1H-1,2,3-triazole-4-sulfonamide] | ≤ 100 nM
8 | Cn1cc(S(=O)(=O)N(CCF)[C@H]2CCC3=Cc4c(cnn4-c4ccc(F)cc4)C[C@]3(C(=O)c3ncc(C(F)(F)F)s3)C2)cn1 [Example 396, N-(2-fluoroethyl)-N-((4aS,6S)-1-(4-fluorophenyl)-4a-(5-(trifluoromethyl)thiazole-2-carbonyl)-4,4a,5,6,7,8-hexahydro-1H-benzo[f]indazol-6-yl)-1-methyl-1H-pyrazole-4-sulfonamide] | ≤ 100 nM
9 | COCCN([C@H]1CCC2=Cc3c(cnn3-c3ccc(F)cc3)C[C@]2(C(=O)c2ncc(C(F)(F)F)s2)C1)S(=O)(=O)c1ncn(C)n1 [Example 398, N-((4aS,6S)-1-(4-fluorophenyl)-4a-(5-(trifluoromethyl)thiazole-2-carbonyl)-4,4a,5,6,7,8-hexahydro-1H-benzo[f]indazol-6-yl)-N-(2-methoxyethyl)-1-methyl-1H-1,2,4-triazole-3-sulfonamide] | ≤ 100 nM
10 | Cn1ccc(S(=O)(=O)N(C2CC2)[C@H]2CCC3=Cc4c(cnn4-c4ccc(F)nc4)C[C@]3(C(=O)c3ncc(C(F)(F)F)s3)C2)n1 [Example 399, N-cyclopropyl-N-((4aS,6S)-1-(6-fluoropyridin-3-yl)-4a-(5-(trifluoromethyl)thiazole-2-carbonyl)-4,4a,5,6,7,8-hexahydro-1H-benzo[f]indazol-6-yl)-1-methyl-1H-pyrazole-3-sulfonamide] | ≤ 100 nM
11 | O=C(c1ncc(C(F)(F)F)s1)[C@]12Cc3cnn(-c4ccc(F)cc4)c3C=C1CC[C@H](N(CC(F)F)S(=O)(=O)c1ccc(F)cc1)C2 [Example 405, N-(2,2-difluoroethyl)-4-fluoro-N-((4aS,6S)-1-(4-fluorophenyl)-4a-(5-(trifluoromethyl)thiazole-2-carbonyl)-4,4a,5,6,7,8-hexahydro-1H-benzo[f]indazol-6-yl)benzenesulfonamide] | ≤ 100 nM

More lines, now with the values ahead:

Row | IC50 | SMILES
12 | ≤ 100 nM | O=C(c1cc(C(F)(F)F)ccn1)[C@]12Cc3cnn(-c4ccc(F)cc4)c3C=C1CC[C@H](N(CCF)S(=O)(=O)c1ccc(F)cc1)C2 [Example 387, 4-fluoro-N-(2-fluoroethyl)-N-((4aS,6S)-1-(4-fluorophenyl)-4a-(4-(trifluoromethyl)picolinoyl)-4,4a,5,6,7,8-hexahydro-1H-benzo[f]indazol-6-yl)benzenesulfonamide]
13 | ≤ 100 nM | Cn1cnc(S(=O)(=O)N(CCF)[C@H]2CCC3=Cc4c(cnn4-c4ccc(F)cc4)C[C@]3(C(=O)c3cc(F)ccn3)C2)n1 [Example 392, N-(2-fluoroethyl)-N-((4aS,6S)-1-(4-fluorophenyl)-4a-(4-fluoropicolinoyl)-4,4a,5,6,7,8-hexahydro-1H-benzo[f]indazol-6-yl)-1-methyl-1H-1,2,4-triazole-3-sulfonamide]
14 | ≤ 100 nM | Cn1cc(S(=O)(=O)N(CCF)[C@H]2CCC3=Cc4c(cnn4-c4ccc(F)cc4)C[C@]3(C(=O)c3cc(C(F)(F)F)ccn3)C2)nn1 [Example 395, N-(2-fluoroethyl)-N-((4aS,6S)-1-(4-fluorophenyl)-4a-(4-(trifluoromethyl)picolinoyl)-4,4a,5,6,7,8-hexahydro-1H-benzo[f]indazol-6-yl)-1-methyl-1H-1,2,3-triazole-4-sulfonamide]
15 | ≤ 100 nM | Cn1ccc(S(=O)(=O)N(CCF)[C@H]2CCC3=Cc4c(cnn4-c4ccc(F)cc4)C[C@]3(C(=O)c3cc(F)ccn3)C2)n1 [Example 397, N-(2-fluoroethyl)-N-((4aS,6S)-1-(4-fluorophenyl)-4a-(4-fluoropicolinoyl)-4,4a,5,6,7,8-hexahydro-1H-benzo[f]indazol-6-yl)-1-methyl-1H-pyrazole-3-sulfonamide]
16 | ≤ 100 nM | Cn1ccc(S(=O)(=O)N(CC(=O)OC(C)(C)C)[C@H]2CCC3=Cc4c(cnn4-c4ccc(F)cc4)C[C@]3(C(=O)c3cc(C(F)(F)F)ccn3)C2)n1 [Example 400, tert-butyl N-((4aS,6S)-1-(4-fluorophenyl)-4a-(4-(trifluoromethyl)picolinoyl)-4,4a,5,6,7,8-hexahydro-1H-benzo[f]indazol-6-yl)-N-((1-methyl-1H-pyrazol-3-yl)sulfonyl)glycinate]
17 | 100 to 1000 nM | Cn1ccc(S(=O)(=O)N(CC(=O)O)[C@H]2CCC3=Cc4c(cnn4-c4ccc(F)cc4)C[C@]3(C(=O)c3cc(C(F)(F)F)ccn3)C2)n1 [Example 401, N-((4aS,6S)-1-(4-fluorophenyl)-4a-(4-(trifluoromethyl)picolinoyl)-4,4a,5,6,7,8-hexahydro-1H-benzo[f]indazol-6-yl)-N-((1-methyl-1H-pyrazol-3-yl)sulfonyl)glycine]
18 | ≤ 100 nM | Cn1ccc(S(=O)(=O)N(C2CC2)[C@H]2CCC3=Cc4c(cnn4-c4ccc(F)nc4)C[C@]3(C(=O)c3cc(C(F)(F)F)ccn3)C2)n1 [Example 402, N-cyclopropyl-N-((4aS,6S)-1-(6-fluoropyridin-3-yl)-4a-(4-(trifluoromethyl)picolinoyl)-4,4a,5,6,7,8-hexahydro-1H-benzo[f]indazol-6-yl)-1-methyl-1H-pyrazole-3-sulfonamide]
19 | ≤ 100 nM | Cn1ccc(S(=O)(=O)N(CCF)[C@H]2CCC3=Cc4c(cnn4-c4ccc(F)cc4)C[C@]3(C(=O)c3cc(Cl)ccn3)C2)n1 [Example 403, N-((4aS,6S)-4a-(4-chloropicolinoyl)-1-(4-fluorophenyl)-4,4a,5,6,7,8-hexahydro-1H-benzo[f]indazol-6-yl)-N-(2-fluoroethyl)-1-methyl-1H-pyrazole-3-sulfonamide]
20 | ≤ 100 nM | COCCOCCN([C@H]1CCC2=Cc3c(cnn3-c3ccc(F)cc3)C[C@]2(C(=O)c2cc(C(F)(F)F)ccn2)C1)S(=O)(=O)c1ccc(F)cc1 [Example 404, 4-fluoro-N-((4aS,6S)-1-(4-fluorophenyl)-4a-(4-(trifluoromethyl)picolinoyl)-4,4a,5,6,7,8-hexahydro-1H-benzo[f]indazol-6-yl)-N-(2-(2-methoxyethoxy)ethyl)benzene-sulfonamide]
